According to patent US8354454B2, “Prodrugs of oxazolidinone CETP inhibitors” (Merck Sharp & Dohme Corp., priority 2008, dated 2013):

Experiment: physchem
Details: buffer, pH 7.68
Procedure: 50 μL aliquots were removed periodically. […] Each aliquot was diluted with MeCN-d3 (150 μL), and a ^1H NMR spectrum was acquired (128 scans at 25° C., with acquisition starting 3 minutes after the aliquot was taken from the reaction).
The methods for determining the half-lives were approximately the same as described above, with variations in procedure depending on such variables as solubility and reaction rates.

half-life: ~150 min
SMILES: COc1cc(F)c(C(C)C)cc1-c1ccc(C(F)(F)F)cc1CN[C@@H](C)[C@H](OC(=O)OC(COP(=O)(O)O)COP(=O)(O)O)c1cc(C(F)(F)F)cc(C(F)(F)F)c1 [Example 47, (8R,9S)-8-[3,5-bis(trifluoromethyl)phenyl]-N-{[4′-fluoro-5′-isopropyl-2′-methoxy-4-(trifluoromethyl)biphenyl-2-yl]methyl}-1,1-dihydroxy-6-oxo-4-[(phosphonooxy)methyl]-2,5,7-trioxa-1λ^5-phosphadecan-9-aminium1-oxide chloride]
